Read-outs that look alike come from different tables or passages of the source.
Tests used:
[1] = tested on: MiaPaca-2 cells; experiment: MiaPaca-2 cell proliferation assay (resazurin); assay type: cell-based; conditions: read-out: MiaPaca-2
[2] = tested on: HPAF-II cells; experiment: HPAF-II cell proliferation assay (resazurin); assay type: cell-based; conditions: read-out: HPAF-II
How it was run: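 Serial compound dilutions in triplicate with 750 cells/well in complete MEM with 10% FBS, 115 to 120 h at 37° C, 5% CO2. Resazurin then added for 18 to 24 h; fluorescence at ex 540/em 600 nm used to derive IC50.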

[3] = tested on: Pa16c cells; experiment: Pa16c cell proliferation assay (resazurin); assay type: cell-based; conditions: Table 2, inhibition of cell proliferation
How it was run: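 Pa16c cells, 750 per well in DMEM with 10% FBS, exposed to serially diluted compound in triplicate for 67-72 h at 37 °C. Resazurin then added for a further 18-24 h, fluorescence read at Ex 540/Em 600 nm, and IC50 calculated.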

[4] = target: T1, C-Raf kinase (Homo sapiens, UniProt P04049, Y340D/Y341D); experiment: Biochemical assay for C-Raf (coupled pyruvate kinase/lactate dehydrogenase); conditions: read-out: CRAF
T1 construct: C-Raf residues 306-end; Y340D, Y341D with N-; purchased Sigma

[5] = Homo sapiens, MIA PaCa-2, Table 2, inhibition of cell proliferation
[6] = Homo sapiens, Table 2, inhibition of cell proliferation
[7] = Table 1, inhibition of biochemical activity

T1 sequence (P04049 307-648 Y340D/Y341D): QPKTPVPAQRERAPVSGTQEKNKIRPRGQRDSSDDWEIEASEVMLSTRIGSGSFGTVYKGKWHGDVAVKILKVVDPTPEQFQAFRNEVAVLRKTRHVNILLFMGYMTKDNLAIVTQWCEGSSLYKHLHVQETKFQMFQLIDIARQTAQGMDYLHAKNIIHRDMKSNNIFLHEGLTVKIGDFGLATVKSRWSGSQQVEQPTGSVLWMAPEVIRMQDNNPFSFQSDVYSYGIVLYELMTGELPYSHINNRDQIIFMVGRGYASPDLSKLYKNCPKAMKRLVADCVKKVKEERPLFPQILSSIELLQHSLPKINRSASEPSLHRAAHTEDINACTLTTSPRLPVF

Compound	IC50 [1, 5] [nM]	IC50 ([1]; Table 3) [nM]	IC50 [2, 6] [nM]	IC50 ([2]; Table 3) [nM]	IC50 [3] [nM]	IC50 [4, 7] [nM]	IC50 ([4]; Table 3) [nM]
CNC(=O)c1cc(-c2cc(-c3cc(NC(=O)c4cc(C(F)(F)F)cnn4)ccc3C)cc(C)n2)ccn1 [Example 2, N,6-dimethyl-4-(2-methyl-5-(5-(trifluoromethyl)pyridazine-3-carboxamido)phenyl)-[2,4′-bipyridine]-2′-carboxamide]	100 to 500	100 to 500	500 to 1000	500 to 1000	500 to 1000	< 100	< 100
CNC(=O)c1cc(-c2cc(-c3cc(NC(=O)c4cc(C5CC5)cnn4)ccc3C)ccn2)ccn1 [Example 26]	100 to 500	100 to 500	100 to 500	100 to 500	100 to 500	< 100	< 100
CNC(=O)c1cc(-c2cc(-c3cc(NC(=O)c4cc(C5CC5)cnn4)ccc3C)cc(NCCO)n2)ccn1 [Example 27]	100 to 500	100 to 500	100 to 500	100 to 500	< 100	< 100	< 100
CNC(=O)c1cc(-c2cc(-c3cc(NC(=O)c4cc(C(F)(F)F)cnn4)ccc3C)ccn2)ccn1 [Example 9]	100 to 500	100 to 500	100 to 500	100 to 500	100 to 500	< 100	< 100
CNC(=O)c1cc(-c2cc(-c3cc(NC(=O)c4cc(C(F)(F)F)cnn4)ccc3C)cc(NCCO)n2)ccn1 [Example 18]	< 100	< 100	100 to 500	100 to 500	< 100	< 100	< 100

— US20260176260A1, “DUAL RAF AND TUBULIN INHIBITORS AND METHODS OF USE THEREOF” (Deciphera Pharmaceuticals, LLC, priority 2023, published 2026)
